Literature values as cited in US20110178105A1, “CLINICAL BENEFITS OF EICOSAPENTAENOIC ACID IN HUMANS” (E.I. DU PONT DE NEMOURS AND COMPANY, priority 2010, published 2011).

Details: human, in vivo; cited from earlier work

vitamin E
benefit in post-myocardial infarction patients: no benefit
